Results on two molecules are retold here after article PMC5686105, “The industrial anaerobe Clostridium acetobutylicum uses polyketides to regulate cellular differentiation” (Nature Communications, 2017).

Assay [1] has as its target T1, PKS (ca_c3355) (Clostridium acetobutylicum, UniProt Q97DW5). Description: in vitro product assay by LC-MS. Format: biochemical. The conditions noted are these: 100 mM phosphate pH 7.0, 2 mM malonyl-CoA, 2 mM NADPH, 8 uM PKS, room temperature, 2 h; KR domain reductant.
Assay [2] has as its target T1, PKS (ca_c3355). Description: in vitro product assay by LC-MS; […] acyl loading by SDS-PAGE autoradiography. It is filed as biochemical. As to conditions: 100 mM phosphate pH 7.0, 2 mM malonyl-CoA, 8 uM PKS, room temperature, 2 h; covalent acyl-S-enzyme intermediate seen with labelled compound (made in situ by MatB, pH 8.0, 25 °C).

T1 sequence (Q97DW5 1-1795): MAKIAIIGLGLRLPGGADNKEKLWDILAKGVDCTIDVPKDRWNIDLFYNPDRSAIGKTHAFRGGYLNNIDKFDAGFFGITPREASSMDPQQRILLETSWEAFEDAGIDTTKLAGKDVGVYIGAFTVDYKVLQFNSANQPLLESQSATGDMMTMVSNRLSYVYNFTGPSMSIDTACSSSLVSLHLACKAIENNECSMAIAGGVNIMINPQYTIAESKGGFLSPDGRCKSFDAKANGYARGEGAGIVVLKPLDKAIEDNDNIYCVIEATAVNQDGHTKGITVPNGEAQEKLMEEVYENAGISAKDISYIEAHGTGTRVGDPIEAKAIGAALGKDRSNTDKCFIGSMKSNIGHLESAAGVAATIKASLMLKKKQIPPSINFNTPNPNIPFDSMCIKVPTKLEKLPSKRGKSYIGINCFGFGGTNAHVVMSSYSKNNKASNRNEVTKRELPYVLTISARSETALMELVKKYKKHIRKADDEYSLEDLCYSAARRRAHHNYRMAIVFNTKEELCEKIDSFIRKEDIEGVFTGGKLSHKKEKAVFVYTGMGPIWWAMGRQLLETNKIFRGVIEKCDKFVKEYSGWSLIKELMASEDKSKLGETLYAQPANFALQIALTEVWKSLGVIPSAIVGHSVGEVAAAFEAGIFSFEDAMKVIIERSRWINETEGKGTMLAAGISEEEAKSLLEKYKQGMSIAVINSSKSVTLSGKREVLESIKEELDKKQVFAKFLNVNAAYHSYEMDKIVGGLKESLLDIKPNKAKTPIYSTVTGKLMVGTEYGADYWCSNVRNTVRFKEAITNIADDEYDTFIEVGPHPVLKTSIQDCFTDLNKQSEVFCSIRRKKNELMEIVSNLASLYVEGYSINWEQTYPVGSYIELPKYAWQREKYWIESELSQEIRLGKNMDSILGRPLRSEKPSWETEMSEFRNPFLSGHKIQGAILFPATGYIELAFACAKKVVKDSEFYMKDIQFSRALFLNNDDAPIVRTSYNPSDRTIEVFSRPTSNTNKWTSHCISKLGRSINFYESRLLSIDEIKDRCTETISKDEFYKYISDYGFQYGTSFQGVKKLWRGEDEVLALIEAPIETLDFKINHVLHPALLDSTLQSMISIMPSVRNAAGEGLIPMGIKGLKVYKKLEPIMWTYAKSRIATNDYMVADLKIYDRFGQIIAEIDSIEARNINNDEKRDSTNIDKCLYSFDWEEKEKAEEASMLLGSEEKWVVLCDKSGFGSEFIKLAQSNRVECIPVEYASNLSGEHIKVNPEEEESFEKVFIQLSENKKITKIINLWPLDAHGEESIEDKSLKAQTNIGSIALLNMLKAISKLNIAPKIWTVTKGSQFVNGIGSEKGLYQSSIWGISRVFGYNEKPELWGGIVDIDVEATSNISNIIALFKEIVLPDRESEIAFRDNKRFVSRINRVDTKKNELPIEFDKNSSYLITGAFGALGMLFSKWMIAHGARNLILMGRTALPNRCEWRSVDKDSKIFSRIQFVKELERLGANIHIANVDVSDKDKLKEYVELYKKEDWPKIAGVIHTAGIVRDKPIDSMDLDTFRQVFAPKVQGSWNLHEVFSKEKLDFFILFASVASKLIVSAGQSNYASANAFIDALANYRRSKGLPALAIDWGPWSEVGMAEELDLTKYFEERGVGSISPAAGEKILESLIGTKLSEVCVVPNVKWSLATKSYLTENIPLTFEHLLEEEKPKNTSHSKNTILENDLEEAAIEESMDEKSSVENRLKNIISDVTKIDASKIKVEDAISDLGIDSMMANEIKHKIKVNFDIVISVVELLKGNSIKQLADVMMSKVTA

Turning to `NC(=O)C1=CN([C@@H]2O[C@H](COP(=O)(O)OP(=O)(O)OC[C@H]3O[C@@H](n4cnc5c(N)ncnc54)[C@H](OP(=O)(O)O)[C@@H]3O)[C@@H](O)[C@H]2O)C=CC1` [NADPH], the “in vitro product assay by LC-MS” value in assay [1] is reported as “Addition of NADPH to this reaction enabled function of the KR domain”.
As to `CC(C)(COP(=O)(O)OP(=O)(O)OC[C@H]1O[C@@H](n2cnc3c(N)ncnc32)[C@H](O)[C@@H]1OP(=O)(O)O)[C@@H](O)C(=O)NCCC(=O)NCCSC(=O)CC(=O)O` [malonyl-CoA], in assay [2], the “in vitro product assay by LC-MS; 14C acyl loading by SDS-PAGE autoradiography” value is “in vitro reconstitution of the activity of PKS with malonyl-CoA showed a dominant product”.
